Laboratory results from patent US20040185457A1, “Method for detecting dna polymerisation” (priority 2001, published 2004).

Key:
Assay type in all cases: biochemical
[1] = molecular target: T1, luciferase (Photinus pyralis, UniProt P08659); experiment: Signal:background ratio in ELIDA assays of PCR reactions; conditions: unreacted PCR mix vs 30 cycles, compared to dATP
Description: PCR reactions were set up as in Example 2 except that only 0.5 pg of the test plasmid pPw601 a was used. Further, the PCR reactions contained either d-α-SATP or dATP. The light emission from an ELIDA assay of unreacted PCR mixes containing either d-α-SATP or dATP was measured as in Example 6. A further ELIDA assay was performed on the same samples after they had completed 30 cycles of a PCR reaction (and had produced the same amount of amplicon as judged by agarose gel analysis). The ratio of the light emission from the unreacted PCR mix to the reacted PCR mix is shown in FIG. 3 (showing signal:background ratio).

[2] = molecular target: T1, luciferase; experiment: Stability of light emission from ELIDA assays of PCR reactions; conditions: four consecutive readings over 1 minute; for light emission over time: 5 and 35 cycle PCR samples
Description: PCR reactions were set up and run as in Example 5. The analysis of each PCR sample was initiated by mixing 1 μl of the PCR reaction with 20 μl of ELIDA assay buffer. The light emitted from the sample was then measured with a Labsystems Luminoscan Ascent luminometer in a series of four consecutive light readings over a period of 1 minute. Each light reading represented the light emission from the sample integrated over a ten-second interval (using the machine's default PMT voltage).
This effect becomes greater with the number of PCR cycles. […] As a result, the magnitude of the differential between the readings for 5 and 35 cycles over the four readings taken, is almost constant (only 5% difference).

[3] = molecular target: T2, Taq polymerase (Thermus aquaticus, UniProt P19821); experiment: PCR using the dATP analogue, product seen by agarose gel electrophoresis
T2 construct: purchased Roche
T2 sequence (P19821 whole entry): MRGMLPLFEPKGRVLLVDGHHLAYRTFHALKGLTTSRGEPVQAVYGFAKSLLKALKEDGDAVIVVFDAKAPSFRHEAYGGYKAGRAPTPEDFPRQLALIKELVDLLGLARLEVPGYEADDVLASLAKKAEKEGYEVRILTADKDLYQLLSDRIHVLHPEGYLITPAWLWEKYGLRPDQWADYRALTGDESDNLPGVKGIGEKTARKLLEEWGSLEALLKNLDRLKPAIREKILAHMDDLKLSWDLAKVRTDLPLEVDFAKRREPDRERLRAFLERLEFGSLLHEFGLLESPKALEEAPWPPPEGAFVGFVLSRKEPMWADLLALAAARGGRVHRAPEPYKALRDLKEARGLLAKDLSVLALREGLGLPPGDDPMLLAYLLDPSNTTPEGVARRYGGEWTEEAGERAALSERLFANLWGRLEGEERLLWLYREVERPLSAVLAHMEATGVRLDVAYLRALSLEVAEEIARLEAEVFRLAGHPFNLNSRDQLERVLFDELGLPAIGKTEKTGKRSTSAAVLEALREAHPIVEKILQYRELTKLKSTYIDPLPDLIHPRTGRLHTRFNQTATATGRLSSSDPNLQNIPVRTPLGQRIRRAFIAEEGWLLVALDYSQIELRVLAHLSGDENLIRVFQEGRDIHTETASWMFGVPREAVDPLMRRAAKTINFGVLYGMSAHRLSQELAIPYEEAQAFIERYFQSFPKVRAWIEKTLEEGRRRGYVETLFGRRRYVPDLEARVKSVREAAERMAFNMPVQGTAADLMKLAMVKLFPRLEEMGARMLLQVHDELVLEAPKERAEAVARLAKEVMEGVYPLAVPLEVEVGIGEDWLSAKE
Description: A 50 μl PCR reaction contained the following:
The sequences of primers 1 and 2 and the test plasmid are given in SEQ ID Nos. 1, 2 and 3, respectively. The size of the expected PCR product was 158 bp.
Taq polymerase was added to the sample after heating to 95° for 30 seconds. The following cycling parameters were implemented on a Perkin-Elmer GeneAmp PCR system 2400.
10 μl of the resulting PCR reaction was loaded onto a […] containing ethidium bromide alongside a molecular weight marker. The gel was run at 60V for 50 minutes and then visualised under a transilluminator.

[4] = molecular target: T3, Photinus pyralis luciferase (Photinus pyralis, UniProt P08659); experiment: Bioluminescence of nucleotides with firefly luciferase in pyrophosphate assay buffer (ELIDA reagent); conditions: for wavelength of maximal light emission: pH 7.8
T3 construct: purchased Promega
T3 sequence (P08659 whole entry): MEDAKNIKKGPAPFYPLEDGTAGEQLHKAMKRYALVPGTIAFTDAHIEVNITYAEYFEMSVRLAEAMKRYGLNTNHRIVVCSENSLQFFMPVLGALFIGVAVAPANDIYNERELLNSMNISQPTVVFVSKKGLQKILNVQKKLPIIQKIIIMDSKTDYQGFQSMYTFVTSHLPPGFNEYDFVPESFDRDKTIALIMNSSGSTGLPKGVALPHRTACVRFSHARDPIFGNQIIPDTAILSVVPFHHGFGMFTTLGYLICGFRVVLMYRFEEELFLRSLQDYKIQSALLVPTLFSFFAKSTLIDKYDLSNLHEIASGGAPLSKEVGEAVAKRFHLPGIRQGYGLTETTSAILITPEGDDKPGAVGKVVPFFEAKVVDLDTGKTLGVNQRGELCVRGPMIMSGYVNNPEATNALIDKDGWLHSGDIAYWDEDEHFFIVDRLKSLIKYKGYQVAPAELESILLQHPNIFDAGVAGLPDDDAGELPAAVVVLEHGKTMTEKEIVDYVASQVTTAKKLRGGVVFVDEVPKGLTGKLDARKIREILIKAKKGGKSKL
Description: Pyrophosphate assay buffer (PAB) was made up as follows:
50 μl of PAB was aliquoted into two wells of a 96 well plate. To one sample was added 1 μl of 0.1 mM sodium pyrophosphate; to the other was added 1 μl of 2 mM dATP. The resulting light emission was observed using a Syngene light-box with a black and white CCD camera integrating the signal over 5 seconds. […] The amount of dATP added is equivalent to ⅕ the amount used in a standard 50 μl PCR reaction.
A green filter was placed in front of the lens of the CCD camera and the sample above was observed once more.

T1 sequence (P08659 whole entry): as above

Row | SMILES | signal:background ratio [1] | difference in the differential between the readings for 5 and 35 cycles over the four readings [2] | light emission over time [2] | PCR product generated (gel) ([3]; used instead of dATP, 30 cycles) | substrate quality for luciferase relative to dATP ([4]; direct reaction with luciferase) | wavelength of maximal light emission [4] | PCR product generated (gel) ([3]; 1/10th the usual concentration of 0.2 mM) | light emission on addition to pyrophosphate assay buffer ([4]; 1 μl of 2 mM in 50 μl PAB, CCD camera, 5 seconds)
1 | Nc1ncnc2c1ncn2[C@H]1C[C@H](O)[C@@H](COP(O)(=S)OP(=O)(O)OP(=O)(O)O)O1 (stereo partly drawn) [d-α-SATP] | considerably improves the signal:background ratio | 5% | close to constant | a PCR product is generated | approximately one-hundred-fold poorer substrate for luciferase than dATP |  |  | 
2 | Nc1ncnc2c1ncn2[C@@H]1O[C@H](COP(=O)(O)OP(=O)(O)OP(=O)(O)O)[C@@H](O)[C@H]1O [ATP] |  |  |  |  |  | 550 nm |  | 
3 | Nc1ncnc2c1ncn2[C@H]1C[C@H](O)[C@@H](COP(=O)(O)OP(=O)(O)OP(=O)(O)O)O1 [dATP] |  |  | significant decay in light emission over time |  |  | 620 nm | no PCR product is detected | significant light emission
